Our source for the RP-LC retention time values is the METLIN SMRT retention time set (Domingo-Almenara et al. 2019).

The structures appear in SMILES notation.

The series can be described thus: gradient 5% acetonitrile 3 min, to 50% in 2 min, to 85% in 15 min, held 3 min, 100 µL/min. The note with it: column: Zorbax Extend-C18 2.1 x 50 mm; eluents: water / acetonitrile, 0.1% formic acid. The gist of the method: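 Over 3 months, pure standards in mixtures of ~100 molecules were run by HPLC coupled to a quadrupole time-of-flight mass spectrometer in positive and negative ionization mode. The column was a Zorbax Extend-C18 (2.1 × 50 mm, 1.8 μm) at 100 μL/min, eluted with water and acetonitrile each holding 0.1% formic acid, with 40 μL dead and 900 μL dwell volumes. Retention time was determined from adduct peaks chosen by software and checked manually.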
As for `Cc1oc(C2CCN(S(=O)(=O)CCc3ccccc3)CC2)nc1C(=O)N1CCCCC1`, the RP-LC retention time came to 943 s.
Compound `CCN1CCN(c2ccc(-c3nc(-c4cccc(F)c4)no3)cn2)CC1` registered an RP-LC retention time of 698 s.
`O=C(Nc1ccc(F)c(F)c1)C1CCCN(C(=O)Cc2cccc3ccccc23)C1` (centres undefined): the RP-LC retention time came out at 1020 s.
For `O=C(Nc1ccc(N2CCOCC2)cc1)c1cc(C2CC2)n2nccc2n1`, the RP-LC retention time is 846 s.
The value for `COc1cccc(C(=O)N2CCc3nc[nH]c3C2)c1OC` was 555 s.
In turn, `CCc1nc(NC(=O)Cn2nc3c(cc2=O)CCCC3)sc1C` had an RP-LC retention time of 764 s.
Take `O=C(NC1CCCCC1)C1CCCN(c2ncc(-c3ccccc3)cn2)C1` (centres undefined): the RP-LC retention time came out at 1070 s.
As to `CC(C(=O)NCCc1cccs1)n1c2ccccc2c2cnn(C)c(=O)c21` (centres undefined), the RP-LC retention time amounted to 855 s.
The value for `Cc1ccn2cc(C(=O)NCc3cc(F)ccc3F)nc2c1` was 657 s.
Regarding `CN(C)c1ncncc1N1CCC(C(=O)N2CCOCC2)CC1`, the RP-LC retention time amounted to 567 s.
Regarding `CC(C)CCNC(=O)c1ccc2c(=O)n(-c3ccccc3)c(N3CCCC3)nc2c1`, the RP-LC retention time amounted to 858 s.
`COC(=O)c1c(NCc2cc(OC)ccc2OC)c2cccc(Cl)c2[nH]c1=O`: the RP-LC retention time was determined as 808 s.
The value for `CCCN(C(=O)CC)c1nc(-c2ccccc2)cs1` was 1210 s.
To `N#Cc1cccc(NC(=O)N2CCCC2c2nc(-c3ccc(F)cc3F)no2)c1` (centres undefined) belongs 930 s.
`Cc1ccc(-c2nc3c(C)cccn3c2Nc2ccc3c(c2)OCCO3)cc1` returned an RP-LC retention time of 721 s.
`CC1CCN(C(=O)c2cc3c(s2)CCC(C(=O)NCc2cccnc2)C3)CC1` (centres undefined) showed an RP-LC retention time of 639 s.
`Cc1cc(C)cc(N2C(=O)CN(S(C)(=O)=O)CC2(C)C(=O)NCc2ccc(Cl)cc2)c1` (centres undefined) returned an RP-LC retention time of 919 s.
Consider `CC1(C(=O)NCc2ccc(Cl)cc2)CCCCC(=O)N1` (centres undefined), for which the RP-LC retention time came to 704 s.
As for `CCOc1ccccc1OCc1nn2c(CSc3ccccc3)nnc2s1`, the RP-LC retention time worked out at 1000 s.
Compound `COc1cc(OC)cc(C(=O)NC2CCN(c3cc(-c4cccs4)[nH]n3)C2)c1` (centres undefined) had an RP-LC retention time of 741 s.
`CCc1c(C(=O)O)nnn1-c1ccc2c(c1)OCCO2`: the RP-LC retention time came to 702 s.
`O=C(CCn1c(=O)sc2ccccc21)Nc1nc(-c2ccc(Br)cc2)cs1` returned an RP-LC retention time of 1120 s.
Compound `CCOC(=O)C1CCN(c2nc(=O)[nH]c3ccccc23)CC1` registered an RP-LC retention time of 646 s.
`Cc1c(C(=O)N2CCN(C)CC2)sc2ncnc(N3CCN(c4ccccn4)CC3)c12` had an RP-LC retention time of 523 s.
`CCc1noc(-c2cnc3nc(C)ccc3c2Nc2ccccc2OC)n1` registered an RP-LC retention time of 629 s.
For `COC(=O)c1cc(S(=O)(=O)N2CCCC2C(=O)NCc2ccccc2)cn1C` (centres undefined), the RP-LC retention time was 781 s.
In turn, `Cc1ccc(-c2nc(-c3ccc4nnn(C)c4c3)no2)c(C)c1` came in with an RP-LC retention time of 1170 s.
The compound `O=C(NC1CC1)c1cc(-c2cccc(F)c2)ns1` showed an RP-LC retention time of 882 s.
In turn, `COc1ccc(-c2noc(C3CCCN3C(=O)C3CC3)n2)cc1` (centres undefined) came in with an RP-LC retention time of 816 s.
For `Cn1c(NCCN(CCO)CCCc2ccc([N+](=O)[O-])cc2)cc(=O)n(C)c1=O`, the RP-LC retention time worked out at 610 s.
Regarding `Cc1ccc2oc(-c3noc(C(=O)NCCN4CCC(C)CC4)n3)c(C)c2c1`, the RP-LC retention time is 759 s.
Regarding `CCOC(=O)c1[nH]c(C)c(CCC(=O)N2CCC(C(=O)NCc3ccccc3Cl)CC2)c1C`, the RP-LC retention time stood at 808 s.
`Cc1ccc(-n2nnc(-c3noc(C)n3)c2C)cc1` gave an RP-LC retention time of 836 s.
To `CCC(C)NC(=O)c1cn(-c2ncccc2-c2nc(-c3ccccc3)no2)cn1` (centres undefined) belongs 858 s; to `CCNC(=O)C1CCCN(c2nc3ncn(CC(=O)NCCC4=CCCCC4)c(=O)c3s2)C1` (centres undefined), 692 s.
`COc1cc2c(cc1OC)C(C(=O)NCCCN1CCC(C)CC1)C1c3ccccc3CCN1C2=O` (centres undefined) gave an RP-LC retention time of 624 s.
Regarding `O=C(CS(=O)(=O)Cc1ccccc1)Nc1nc2cc3c(cc2s1)OCO3`, the RP-LC retention time is 790 s.
The compound `Cc1cccc(CN2C(=O)N(c3cccc(F)c3)c3ncccc3S2(=O)=O)c1` returned an RP-LC retention time of 1050 s.
On to `O=C(NC1CCN(c2cc(-c3cccs3)[nH]n2)C1)c1ccc(F)cc1Cl` (centres undefined), for which the RP-LC retention time amounted to 726 s.
`CCOC(=O)C1CCN(c2nc(-c3ccc(OC)cc3)no2)CC1`: the RP-LC retention time worked out at 981 s.
As to `Cc1ccc2nc(NC(=O)CSc3nnc(Cc4c(C)[nH]c(=O)[nH]c4=O)o3)sc2c1`, the RP-LC retention time is 643 s.
The compound `Cc1cc(C)cc(Nc2c(-c3ccc4c(c3)OCO4)nc3cnccn23)c1` showed an RP-LC retention time of 984 s.
In the case of `O=C(Nc1ccc2c(c1)OCO2)c1c(O)c2ccccc2n(-c2ccccc2)c1=O`, the RP-LC retention time came out at 858 s.
As for `CCOc1nc2ccccc2nc1N1CCCC(C(=O)Nc2ccc(Br)c(C)c2)C1` (centres undefined), the RP-LC retention time was 1420 s.
To `CCOc1ccc(-c2csc3c(=O)n(Cc4ccc(N5CCCC5=O)cc4)cnc23)cc1OCC` belongs 929 s.
Consider `Cc1noc2ncnc(N3CCCC(C(=O)N4CCN(C5CCCCC5)CC4)C3)c12` (centres undefined), for which the RP-LC retention time was determined as 594 s.
`CC(=O)Nc1ccc(NC(=O)c2ccc3nc(-c4ccccc4)cn3c2)cc1` gave an RP-LC retention time of 612 s.
To `COCCCNC(=O)C1c2ccccc2C(=O)N(C)C1c1ccc(OC)c(OC)c1` (centres undefined) belongs 666 s; to `Cc1ccc(Nc2c(-c3ccc(O)cc3)nc3ncccn23)c(C)c1`, 719 s; to `CCn1nc(C)c2c(-c3ccccc3)cc(OC(C)C(=O)NCc3ccco3)nc21` (centres undefined), 782 s.
Regarding `COc1ccc(NC(=O)Cn2c(C)nc3c(sc4nc(-c5ccccc5)ccc43)c2=O)cc1OC`, the RP-LC retention time came to 938 s.
For `CC1CCN(c2ncc3c(n2)CCC(C(=O)NCCc2cccnc2)C3)CC1` (centres undefined), the RP-LC retention time worked out at 598 s.
Turning to `CCN1CCC(N(Cc2ccc3c(c2)OCO3)C(=O)Nc2cc(C)ccc2OC)CC1`, the RP-LC retention time was found to be 706 s.
The value for `Cc1sc(-c2cc(C(F)(F)F)on2)cc1S(=O)(=O)Nc1ccc2c(c1)OCCO2` was 1070 s; that for `COc1cccc2c1C(=O)c1c(O)c3c(c(O)c1C2=O)C[C@@](O)(/C(C)=N\O)C[C@@H]3OC1CC(N)C(O)C(C)O1` (some centres undefined) was 681 s; that for `O=C(Cn1nc(C(=O)N2CCCC2)c2ccccc21)NCc1ccccc1Cl` was 824 s.
Consider `CCCCS(=O)(=O)N1CCN(c2ccc(Nc3cc(C)ccn3)nn2)CC1`, for which the RP-LC retention time is 585 s.
For `CC1(C)CC(=O)c2cn(-c3ccccc3)c(=O)c(C(=O)N3CCN(c4ccccn4)CC3)c2C1`, the RP-LC retention time worked out at 622 s.
Turning to `CCN1C(=O)COc2ccc(-c3nc(NC(=O)c4ccccc4Cl)sc3C)cc21`, the RP-LC retention time amounted to 1000 s.
To `CCOc1ccc(CC(=O)N2C[C@@H]3C[C@H](NC(=O)c4cccnc4)[C@H]2C3)cc1` belongs 645 s.
The compound `COc1ccc(-c2[nH]ncc2CN2C[C@@H]3CCN(S(C)(=O)=O)C[C@]3(CF)C2)cc1` registered an RP-LC retention time of 590 s.
In the case of `Cn1cc(C(=O)NCc2ccc(F)cc2)c(S(=O)(=O)N2CCSCC2)n1`, the RP-LC retention time was found to be 845 s.
`O=C(NCCn1c(-c2ccncc2)nc2cccnc21)Nc1ccccc1Cl` registered an RP-LC retention time of 624 s.
Compound `O=C(Nc1ccc(F)cc1F)N1CC(Cc2nc(-c3cnccn3)no2)C1` yielded an RP-LC retention time of 690 s.
To `Cc1cc(C)n(Cc2ccc(C(=O)N3CCN(Cc4noc5ccccc45)CC3)o2)n1` belongs 672 s.
For `NC(=O)c1c(NC(=O)C2COc3ccccc3O2)sc2c1CCN(Cc1ccccc1)C2` (centres undefined), the RP-LC retention time turned out to be 587 s.
Take `COc1ccc(-c2cn3c(CC(=O)Nc4ccc(Br)c(C)c4)csc3n2)cc1`: the RP-LC retention time was 914 s.
Take `COCCOCC1CCN(C(=O)COc2cccc(OC)c2)CC1`: the RP-LC retention time was determined as 709 s.
Compound `O=C(NCc1ccc2c(c1)OCO2)c1ccc2c(cnn2CC(=O)N2CCCCCC2)c1` had an RP-LC retention time of 766 s.
Take `Cc1nnc2c(=O)n(CC(=O)N3CCCCC3)c3cccnc3n12`: the RP-LC retention time came to 616 s.
The compound `COc1ccc(NC(=O)Cn2nc(N3CCCC3)c3ccccc3c2=O)cc1OC` registered an RP-LC retention time of 796 s.
`O=C(NCc1cccnc1-c1ccc(F)cc1)c1cccc(Br)c1` came in with an RP-LC retention time of 734 s.
`O=S(=O)(c1ccccc1Cl)N1CCC(c2noc(COCc3ccccc3)n2)CC1` registered an RP-LC retention time of 1100 s.
The compound `COCc1nc(C2CCN(C(=O)C3CCC3)C2)no1` (centres undefined) returned an RP-LC retention time of 672 s.
Turning to `CCc1noc(C2CCCCN2C(=O)c2c[nH]c3ccccc23)n1` (centres undefined), the RP-LC retention time came out at 647 s.
To `O=C(C1CCN(Cc2cc3ccccc3n2Cc2ccccc2)CC1)N1CCN(C2CCCCC2)CC1` belongs 634 s; to `COCC(=O)NC1CCN(c2ccc(C)cc2)C1=O` (centres undefined), 666 s.
Compound `CCOc1nc2ccccc2nc1N1CCCC(C(=O)Nc2cccc(Cl)c2C)C1` (centres undefined) registered an RP-LC retention time of 1310 s.
`COc1ccccc1CNS(=O)(=O)c1ccc(-c2c(C)noc2C)cc1` gave an RP-LC retention time of 922 s.
